Laboratory results from patent US20120178672A1, “Compositions and Methods for Sparing Muscle in Renal Insufficiency and During Hemodialysis” (priority 2009, published 2012).

System: subjects
Assay: Rate of urea production by tracer technique after ingestion of EAAs following resistance exercise
Type: in vivo
Conditions: infusion, same tracer methodology, same time interval
Description: Acute changes in the rate of urea production were measured using a tracer technique known to those of skill in the art. […] The reason for the lack of an increase in urea production is believed to be the reutilization of non-essential amino acids for muscle protein synthesis rather than transport to the liver for degradation and incorporation of the nitrogen into urea. This is reflected by the steady drop in the concentration of alanine in the blood, as depicted in the chart of FIG. 2B. Thus, the EAA blend greatly stimulates net muscle protein synthesis without increasing blood urea concentration. This aspect of the disclosed composition is of potentially great advantage to CKD patients, as the provision of intact protein alone increases blood urea while having minimal effect on muscle protein net balance.

C[C@H](N)C(=O)O [alanine]
Urea production: stimulated urea significantly

NC(=O)CC[C@H](N)C(=O)O [glutamine]
Urea production: stimulated urea significantly
